# Results published in patent US20220401385A1, “Combination Therapy Based on PD-1 Signaling Inhibitors” (Kyoto University, priority 2019, published 2022).
# Columns and labels:
# MethA or CT26 cells = assay: MethA or CT26 tumor model; assay type: in vivo, BALB/c mice; details: BALB/c mouse, MethA (SPD 1 mg/kg) or CT26 (SPD 4 mg/kg), with PD-L1 antibody 2 mg/kg
# Protocol: FIG. 2-2 a-b) MethA or CT26 cells were intradermally inoculated into BALB/c mice. Ten days after inoculation, PD-L1 antibody (2 mg/kg), PD-L1 antibody+SPD (1 mg/kg for Meth A, 4 mg/kg for CT26) or SPD alone was administered. c) LLC cells were intradermally inoculated into C57BL/6 mice. Ten days after inoculation, mice were treated in the same manner as described in a-b) above. SPD was administered at 4 mg/kg. d) MC38 cells were inoculated into C57BL/6 Rag2^−/− mice. Ten days after inoculation, mice were treated in the same manner as described in a-b) above. SPD was administered at 5 mg/kg. Tumor growth curve and survival curve are shown.
# CD44 high CD8+ T cells = assay: Observation of mitochondria under electron microscope, CD44 high cells; assay type: cell-based, mice; details: SPD 0.2 μM, 1 hour
# Protocol: FIG. 5 CD8^+ T cells were isolated from the spleen of mice without tumor inoculation, and further isolated into CD44^+ (CD44 high) and CD44^− (CD44 low) cell populations. a) CD44 low cells were simulated with CD3/CD28 antibody beads and SPD (0.2 μM). […] Protein expression levels after 1 hour and 2 hours were confirmed by western blotting with the respective indicated antibodies. As regards statistical analysis, t-test was used for comparison of two groups. * p<0.05, ** p<0.01, *** p<0.001, **** p<0.0001.
# CD8^+ T cells (2×10^5) were stimulated with 0.2 μM spermidine for 1 hour. Then, cells were harvested, embedded in Ipgell (GenoStaff) and fixed with 4% paraformaldehyde and 2% glutaraldehyde. Images were taken with a transmission electron microscope (TEM). Mitochondrial size was determined with ImageJ software. As regards mitochondrial number, average numbers in single cell were determined with Prism software. Blind testing was used for observation and analysis of mitochondria.
# CD8+ T cells = assay: Flow cytometry of draining lymph node and tumor-infiltrating CD8+ T cells of treated MC38 mice; assay type: in vivo, C57BL/6 mice
# Protocol: FIG. 1-1 a) CD8^+ T cells or CD3^+ T cells were isolated from mice, and 2×10^5 cells were stimulated with CD3/CD28 beads in 96-well U plates. After 24 hours and 48 hours, cells and culture supernatant were collected, followed by measurement of spermidine (SPD) concentration by mass spectrometry. […] Ten days after inoculation, PD-L1 antibody (2 mg/kg), PD-L1 antibody+SPD (2 mg/kg), or SPD alone was administered. Subsequently, PD-L1 antibody was administered 4 times at a regular interval of 5 days, and SPD was administered 8 times at a regular interval of 3 days. Tumor growth curve and survival curve are shown. c) Draining lymph nodes (DLNs) of mice were isolated 13 days after tumor inoculation, and stained with antibodies to CD8, CD44 and CD62L. The number of cells in draining lymph node (cells/DLN) in each treatment group is shown at the left side. After being gated, CD8^+ T cells were fractionated with CD44 and CD62L into P1 to P4 cell populations. Percentages and cell numbers of P1 to P4 in each treatment group are shown. d) Tumor was isolated 13 days after tumor inoculation and treated with collagenase. Percentages and numbers per mg tumor of tumor-infiltrating CD8^+ CD45.2^+ cells are shown. For statistical analysis, ANOVA was used. * p<0.05, ** p<0.01, *** p<0.001, **** p<0.0001.
# FIG. 2-1 a) Treated mice were analyzed for draining lymph nodes and the inside of tumor. Briefly, draining lymph nodes of mice were isolated 13 days after tumor inoculation, and stained with antibodies to CD8 and Sca-1. FACS diagram and percentages of Sca-1^+ cells in CD8^+ T cells are shown. b) CD8^+ T cells in isolated draining lymph nodes were stimulated with CD3/CD28 antibody beads. After 24 hours, cell proliferation was examined by means of ^3H uptake. At the same time, IFN-γ concentration in culture supernatant was measured. c) Tumor from the same mice as described above was treated with collagenase. Then, expression rates of PD-1 and Tim3 in tumor-infiltrating CD8^+ T cells were analyzed. d) Oxygen consumption rate (OCR) and extracellular acidification rate (ECAR) of draining lymph node CD8^+ T cells were measured with a Seahorse analyzer (N=3 wells). For statistical analysis, ANOVA was used. * p<0.05, ** p<0.01, *** p<0.001, **** p<0.0001.
# For analyzing draining lymph nodes, cells from axillary, brachial, and inguinal lymph nodes on the right side of tumor-inoculated mice were harvested and mixed. Averaged cell numbers per one lymph node were used as absolute cell numbers. For tumor analysis, tumor tissues were minced into 2- to 3-mm pieces with scissors and digested with collagenase type IV (Thermo Fisher Scientific) using a gentle MACS Dissociator (Miltenyi Biotec). The numbers of tumor cells per mg were used as absolute numbers.
# The following antibodies recognizing the indicated antigens were used: CD44 (1M7), CD45.2 (104), CD45.1 (A20), CD8 (53-6.7), CD62L (MEL-14) and Sca-1 (D7) from BioLegend. All flow cytometry experiments were performed on FACS Canto II (BD Biosciences) and analyzed using FlowJo software (FLOWJO, LLC). Apoptosis assay was performed with PI (Sigma) and Annexin (BioLegend) following the instructions on the kits.
# [1] = test system: draining lymph node CD8+ T cells; assay: Mitochondria-related proteomics of draining lymph node CD8+ T cells of treated mice; assay type: in vivo
# Protocol: T cells were prepared by two methods. For in vivo analysis, 13 days after tumor inoculation and 3 days after the start of therapy, draining lymph nodes from 5 mice were pooled, followed by isolation of CD8^+ T cells. From the isolated CD8^+ T cells, three samples each consisting of 1×10^6 cells were prepared and used for analysis. For in vitro experiments, 2×10^5 CD8^+ T cells stimulated with 0.2 μM spermidine for 1 hour were used. For mass spectrometry analysis, a Tandem Mass Tag (TMT) system or a Data Independent Acquisition (DIA) system was used. In the analysis of in vivo CD8^+ T cells (FIG. 3), those proteins which increased by 1.5-fold or more or decreased by 0.6-fold or less were extracted.
# [2] = SPD + PD-1 inhibitory antibody, 13 days after tumor inoculation
# [3] = combination therapy, 13 days after tumor inoculation
structure (smiles),measurement,setting,value
"NCCCCNCCCN [SPD, spermidine]",effect of SPD for enhancing the antitumor immunity of PD-1 inhibition,MethA or CT26 cells,confirmed
same,mitochondrial morphology,CD44 high CD8+ T cells,fusion of mitochondria
same,number of mitochondria per cell,CD44 high CD8+ T cells,decreased
same,size per mitochondrion,CD44 high CD8+ T cells,increased
same,structure of cristae,CD44 high CD8+ T cells,damaged in structures
same,absolute number of effector T cells (P3) in draining lymph nodes,CD8+ T cells; [2],increase
same,cell number of the draining lymph nodes,CD8+ T cells; [2],increase
same,frequency of effector T cells (P3) in draining lymph nodes,CD8+ T cells; [2],increase
same,expression of Sca-1 (activation marker) in draining lymph node CD8+ T cells,CD8+ T cells; combination therapy using SPD,enhanced
same,"frequency of exhausted CD8+ T cells (CD8+ PD-1+ Tim-3+), tumor-infiltrating",CD8+ T cells; combination therapy using SPD,decreased significantly
same,frequency of tumor-infiltrating CD8+ T cells,CD8+ T cells; [3],increased
same,number of tumor-infiltrating CD8+ T cells,CD8+ T cells; [3],increased
same,"levels of electron transport chain related proteins (Cytochrome, NADH dehydrogenase, ATPase)",[1]; combined therapy compared to PD-1 inhibition alone,remarkably increased
same,number of mitochondria-related proteins whose level changed significantly,"[1]; out of 203 proteins, combined therapy compared to PD-1 inhibition alone",184
same,pathway analysis: proteins associated with oxidative phosphorylation and metabolic pathways such as glycolysis,[1]; proteins increased under combined therapy,occupied top positions
